Laboratory results published in publication PMC9560169, “The novel visual cycle inhibitor (±)-RPE65-61 protects retinal photoreceptors from light-induced degeneration” (PLoS ONE, 2022).

Biological target: T1, RPE65 (Gallus gallus, UniProt Q9YGX2)
T1 construct: purified chicken recombinant RPE65
T1 sequence (Q9YGX2 1-533): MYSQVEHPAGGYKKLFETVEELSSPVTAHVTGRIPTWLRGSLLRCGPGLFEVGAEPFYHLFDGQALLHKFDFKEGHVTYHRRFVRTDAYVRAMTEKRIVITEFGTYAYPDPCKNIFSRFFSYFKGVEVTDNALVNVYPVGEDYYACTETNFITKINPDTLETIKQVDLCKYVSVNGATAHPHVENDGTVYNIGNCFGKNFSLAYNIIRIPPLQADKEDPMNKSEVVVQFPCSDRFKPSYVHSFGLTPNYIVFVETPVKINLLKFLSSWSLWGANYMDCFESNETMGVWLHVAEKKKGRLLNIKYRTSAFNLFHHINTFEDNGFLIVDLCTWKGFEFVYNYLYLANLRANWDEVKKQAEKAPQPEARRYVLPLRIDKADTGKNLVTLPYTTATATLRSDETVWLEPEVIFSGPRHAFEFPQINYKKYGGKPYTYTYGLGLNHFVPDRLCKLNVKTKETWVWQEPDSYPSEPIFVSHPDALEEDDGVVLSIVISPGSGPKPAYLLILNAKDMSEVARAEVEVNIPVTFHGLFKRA
Test: liposome-based isomerohydrolase assay with all-trans-retinyl palmitate, HPLC of 11-cis-retinol, Lineweaver-Burk
Format: biochemical

Ki: 119 ± 11 nM
SMILES: N=S(=O)(CCN)c1cccc(OCC2CCCCC2)c1 (racemic) [(±)-9, (±)-(2-aminoethyl)(3-(cyclohexylmethoxy)phenyl)(imino)-ƛ^6-sulfanone]
